The values that follow come from patent publication US10233180B2, “Substituted nitrogen-containing heterocyclic derivatives, pharmaceutical compositions comprising the same and applications of antitumor thereof” (ZHEJIANG UNIVERSITY, priority 2014, dated 2019).

Each structure is given as a SMILES string.

The target in one test is T1, Akt1 (Homo sapiens, UniProt P31749).
T1 construct: purchased 32-021
The test can be described thus: AKT1/PKBα KinEASE FP Fluorescein Green Assay (fluorescence polarization kinase kit). It counts as biochemical. Conditions: 1 h reaction, read-out: Inhibitory activities against Akt1 (IC50). The procedure: Second, method for determining the inhibitory activities of substituted nitrogen-containing heterocyclic derivatives in the present invention against Akt1 enzyme:
The inhibitory activities of compounds against AKT1/PKBα are determined by using AKT1/PKBα KinEASE™ FP Fluorescein Green Assay (Green fluorescence detection system of Kinase).
Principle adopted by the fluorescence polarization detection of protein kinase B is a competitive reaction: the phosphorylated tracers labeled with fluorescence will compete with unlabeled phosphorylated products produced by reacting with protein kinase B to combine anti-serine antibodies. […] However, in the reaction mixture containing phosphorylated products, fewer tracers will combine with antibodies (fluorescent tracers are replaced from the antibodies), and signals sent our occur depolarizing. Therefore, the change of polarization is directly related to the activity of protein kinase B in the reaction.
Each of 0.25 μl of compounds with a concentration of 50 μM and the positive control are added to a 384-well plate at room temperature, and each sample is provided with three parallel wells, and then 10 μl of STK Substrate 3 Working Solution, 5 μl of AKT1/PKBα Working Solution, 10 μl of ATP Working Solution are added to each sample respectively, the mixtures are slightly vibrated and shaked for a few minutes. Reaction is carried out just after the adding 10 μl of ATP Working Solution, from this time, reacting for 1 h. After 1 h, 5 μl of STK Stop Mix and 5 μl of STK Antibody Mix are added to each sample respectively to stop the reaction. The samples are maintained for 4 h at room temperature after adding is completed, the polarization values of samples are determined by fluorescence polarization of Microplate Reader (Detection of the signals is valid within 24 h), the inhibitory rate of compounds against the enzyme is calculated by polarization value, and thereby IC50 is calculated.
Experiment is set up four control groups at the same time, which are Buffer Control Wells, Tracer Control Wells, No Enzyme Wells and blank control of dimethyl sulfoxide, respectively. Thus obtained data are used to calculate the inhibitory rate (the preparation methods of above various solution required for determining the activities of compounds against enzyme refer to the specification of the kit of AKT1/PKBα KinEASE™ FP Fluorescein Green Assay Catalog #32-021).

In test [1] the test system is Human ovarian cancer cell strain OVCAR-8. The test can be described thus: MTT assay, inhibition of tumor cell growth in vitro, 72 h. It counts as cell-based. Conditions: Homo sapiens, OVCAR-8, MTT, read-out: Antitumor proliferative activities of tumor cell (IC50, μM) OVCAR-8. Here is the method:
(§1) First, inhibitory activity on tumor proliferation in vitro is determined and the structure activity relationship is preliminarily studied, in which different solid tumor cell strains are selected for determining the antitumor activities in vitro of the synthesized compounds.
(§2) Cell strains: Human ovarian cancer cell strain (OVCAR8), colon adenocarcinoma cell strain (HCT-116)
Medium: OVCAR8: RPMI 1640+Fetal Bovine Serum
(§3) Preparing method of medicines: Dissolving the medicine in DMSO to make a 50 mM stock solution, and diluting it according to a certain ratio to obtain 5 different concentrations.
(§4) Two selected tumor cells OVCAR8 and HCT-116 are incubated at 37° C. in a 5% CO2 incubator, which are subcultured when cells grow up to a density of 70˜90% (adherent cells are subcultured after digesting by Duck's EDTA) for later experiments.
(§5) Compounds are dissolved and diluted by dimethyl sulfoxide (DMSO), and tumor cells OVCAR8 and HCT-116 are seeded in a 96-well plate at a density of 4000 cells/200 μl/well, 1 μl of the compounds are added to each well with the final concentration of 50 μM, 10 μM, 2 μM, 0.4 μM and 0.08 μM, which is incubated for 72 h at 37° C. in a 5% CO2 incubator with DMSO (1%) as blank control.
(§6) The calculating formula of cell inhibitory rate is: cell inhibitory rate %=(the OD value of the control group−the OD value of the medication group)/the OD value of the control group×100%, the half maximal inhibitory concentration (IC50) is obtained by Bliss method.

The test system of test [2] is human colon cancer cell strain HCT-116. The test is described as above. It counts as cell-based. Conditions: Homo sapiens, HCT-116, MTT, read-out: Antitumor proliferative activities of tumor cell (IC50, μM) HCT-116 (converted). Here is the method:
as §1, §2
HCT-116: RPMI 1640+Fetal Bovine Serum
as §3, §4, §5, §6

T1 sequence (P31749 whole entry): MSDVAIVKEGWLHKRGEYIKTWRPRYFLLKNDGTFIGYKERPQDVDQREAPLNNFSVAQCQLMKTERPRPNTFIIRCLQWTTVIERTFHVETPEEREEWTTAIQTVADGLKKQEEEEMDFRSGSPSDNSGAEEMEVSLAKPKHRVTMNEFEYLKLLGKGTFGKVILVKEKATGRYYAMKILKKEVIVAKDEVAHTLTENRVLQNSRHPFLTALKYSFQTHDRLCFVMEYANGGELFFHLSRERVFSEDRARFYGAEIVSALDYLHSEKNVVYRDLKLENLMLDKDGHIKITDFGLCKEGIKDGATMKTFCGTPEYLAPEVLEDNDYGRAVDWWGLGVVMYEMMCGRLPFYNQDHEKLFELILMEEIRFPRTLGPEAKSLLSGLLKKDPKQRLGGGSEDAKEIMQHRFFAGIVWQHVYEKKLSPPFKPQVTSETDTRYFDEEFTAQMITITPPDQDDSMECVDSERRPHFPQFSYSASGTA

For orientation: IC50 means the concentration that gives 50% inhibition. As for `Cc1[nH]c(C(=O)N[C@H]2CNCC[C@@H]2c2cccc(C#N)c2)cc1-c1c(Br)cnn1C` (racemic) [Compound 10, 5-methyl-4-(1-methyl-4-bromo-1H-pyrazol-5-yl)-N-(3,4-trans-4-(3-cyanophenyl)piperidin-3-yl)-1H-pyrrole-2-formamide], the IC50 at Akt1 is 26 nM; in test [1], 6.57 µM; in test [2], 3.31 µM.
In the case of `Cn1nccc1-c1coc(C(=O)N[C@H]2CNCC[C@@H]2c2ccccc2)n1` (racemic) [Compound 19, 4-(1-methyl-1H-pyrazol-5-yl)-N-(3,4-trans-4-phenylpiperidin-3-yl)oxazole-2-formamide], the IC50 on Akt1 was 82 nM; in test [1], 9.83 µM; in test [2], 4.56 µM.
On to `Cc1sc(C(=O)N[C@H]2CNCC[C@@H]2c2ccc(F)c(F)c2)nc1-c1c(Cl)cnn1C` (racemic) [Compound 20, 4-(4-chloro-1-methyl-1H-pyrazol-5-yl)-N-(3,4-trans-4-(3,4-difluorophenyl)piperidin-3-yl)-5-methylthiazole-2-formamide], for which the concentration for half-maximal inhibition (IC50) is 12 nM at Akt1, 9.91 µM in test [1] and 2.11 µM in test [2].
With `Cn1nccc1-c1coc(C(=O)N[C@H]2CNCC[C@@H]2c2ccc(F)c(F)c2)c1` (racemic) [Compound 21, 4-(1-methyl-1H-pyrazol-5-yl)-N-(3,4-trans-4-(3,4-difluorophenyl)piperidin-3-yl)furan-2-formamide], the IC50 at Akt1 is 119 nM; in test [1], 10.7 µM; in test [2], 21 µM.
On to `Cn1ncc(Br)c1-c1coc(C(=O)N[C@H]2CNCC[C@@H]2c2ccccc2)c1` (racemic) [Compound 22, 4-(4-bromo-1-methyl-1H-pyrazol-5-yl)-N-(3,4-trans-4-phenylpiperidin-3-yl) furan-2-formamide], for which the half-inhibitory concentration (IC50) at Akt1 is 108 nM; in test [1], 7.89 µM; in test [2], 12.2 µM.
Turning to `Cn1ncc(Cl)c1-c1coc(C(=O)N[C@H]2CNCC[C@@H]2c2ccc(Cl)cc2)c1` (racemic) [Compound 23, 4-(4-chloro-1-methyl-1H-pyrazol-5-yl)-N-(3,4-trans-4-(4-chlorphenyl)piperidin-3-yl)furan-2-formamide], the half-inhibitory concentration (IC50) is 45 nM on Akt1, 1.22 µM in test [1] and 3.78 µM in test [2].
With `Cn1ncc(Cl)c1-c1coc(C(=O)N[C@H]2CNCC[C@@H]2c2ccc(C(F)(F)F)cc2)c1` (racemic) [Compound 24, 4-(4-chloro-1-methyl-1H-pyrazol-5-yl)-N-(3,4-trans-4-(4-trifluoromethylphenyl)piperidin-3-yl)furan-2-formamide], the results for the IC50 (at Akt1; in test [1]; in test [2]) were 18 nM, 0.98 µM and 2.9 µM, respectively.
For `Cn1ncc(Cl)c1-c1coc(C(=O)N[C@H]2CNCC[C@@H]2c2ccc(F)c(F)c2)c1` (racemic) [Compound 25, 4-(4-chloro-1-methyl-1H-pyrazol-5-yl)-N-(3,4-trans-4-(3,4-difluorophenyl)piperidin-3-yl)furan-2-formamide] the same measures were 238 nM, 21.4 µM and 3.19 µM.
On to `Cn1ncc(Br)c1-c1coc(C(=O)N[C@H]2CNCC[C@@H]2c2ccc(Cl)cc2)c1` (racemic) [Compound 26, 4-(4-bromo-1-methyl-1H-pyrazol-5-yl)-N-(3,4-trans-4-(4-chlorphenyl)piperidin-3-yl)furan-2-formamide], for which the IC50 on Akt1 is 34 nM; in test [1], 4.89 µM; in test [2], 2.16 µM.
For the compound `Cn1ncc(Br)c1-c1coc(C(=O)N[C@H]2CNCC[C@@H]2c2ccc(C(F)(F)F)cc2)c1` (racemic) [Compound 27, 4-(4-bromo-1-methyl-1H-pyrazol-5-yl)-N-(3,4-trans-4-(4-trifluoromethylphenyl)piperidin-3-yl)furan-2-formamide], the values for the IC50 (at Akt1; in test [1]; in test [2]) were 17 nM, 1.82 µM and 5.89 µM, respectively.
Regarding `Cn1ncc(Br)c1-c1coc(C(=O)N[C@H]2CNCC[C@@H]2c2ccc(F)c(F)c2)c1` (racemic) [Compound 28, 4-(4-bromo-1-methyl-1H-pyrazol-5-yl)-N-(3,4-trans-4-(3,4-difluorophenyl)piperidin-3-yl)furan-2-formamide], the IC50 at Akt1 is 62 nM; in test [1], 3.38 µM; in test [2], 11.8 µM.
As to `Cn1ncc(Cl)c1-c1cc(C(=O)N[C@H]2CNCC[C@@H]2c2ccccc2)oc1Cl` (racemic) [Compound 29, 5-chloro-4-(4-chloro-1-methyl-1H-pyrazol-5-yl)-N-(3,4-trans-4-phenylpiperidin-3-yl)furan-2-formamide], the results for the IC50 (at Akt1; in test [1]; in test [2]) were 62 nM, 1.12 µM and 8.67 µM, respectively.
In the same order, the values of `Cn1ncc(Cl)c1-c1cc(C(=O)N[C@H]2CNCC[C@@H]2c2ccc(C(F)(F)F)cc2)oc1Cl` (racemic) [Compound 30, 5-chloro-4-(4-chloro-1-methyl-1H-pyrazol-5-yl)-N-(3,4-trans-4-(4-trifluoromethylphenyl)piperidin-3-yl)furan-2-formamide] are 92 nM, 1.01 µM and 21.6 µM.
Consider `Cn1ncc(Cl)c1-c1cc(C(=O)N[C@H]2CNCC[C@@H]2c2ccc(F)c(F)c2)oc1Cl` (racemic) [Compound 31, 5-chloro-4-(4-chloro-1-methyl-1H-pyrazol-5-yl)-N-(3,4-trans-4-(3,4-difluorophenyl)piperidin-3-yl)furan-2-formamide], for which the IC50 was 18 nM at Akt1, 4.54 µM in test [1] and 1.85 µM in test [2].
On to `Cn1nccc1-c1csc(C(=O)N[C@H]2CNCC[C@@H]2c2ccc(Cl)cc2)c1` (racemic) [Compound 32, 4-(1-methyl-1H-pyrazol-5-yl)-N-(3,4-trans-4-(4-chlorphenyl)piperidin-3-yl) thiophene-2-formamide], for which the IC50 on Akt1 was 123 nM; in test [1] it was 1.47 µM; in test [2], 18.1 µM.
Turning to `Cn1ncc(Cl)c1-c1csc(C(=O)N[C@H]2CNCC[C@@H]2c2ccc(Cl)cc2)c1` (racemic) [Compound 35, 4-(4-chloro-1-methyl-1H-pyrazol-5-yl)-N-(3,4-trans-4-(4-chlorphenyl)piperidin-3-yl)thiophene-2-formamide], the figures for the IC50 (on Akt1; in test [1]; in test [2]) were 120 nM, 4.61 µM and 11.5 µM, respectively.
`Cn1ncc(Cl)c1-c1csc(C(=O)N[C@H]2CNCC[C@@H]2c2ccc(F)c(F)c2)c1` (racemic) [Compound 36, 4-(4-chloro-1-methyl-1H-pyrazol-5-yl)-N-(3,4-trans-4-(3,4-difluorophenyl)piperidin-3-yl)thiophene-2-formamide]: the IC50 is 105 nM at Akt1, 3.38 µM in test [1] and 3.28 µM in test [2].
For `Cn1ncc(Br)c1-c1csc(C(=O)N[C@H]2CNCC[C@@H]2c2ccc(Cl)cc2)c1` (racemic) [Compound 37, 4-(4-bromo-1-methyl-1H-pyrazol-5-yl)-N-(3,4-trans-4-(4-chlorphenyl)piperidin-3-yl)thiophene-2-formamide], the IC50 on Akt1 was 52 nM; in test [1] it was 5.36 µM; in test [2], 2.24 µM.
